# From EP4745137A1 (Gluetacs Therapeutics (Shanghai) Co., Ltd., priority 2023, dated 2025)
# Experiments:
# [1] = molecular target: T1, WEE1 (Homo sapiens, UniProt P30291+Q96SW2); experiment: Western-blot assay of substrate protein degradation in hPBMCs, WEE1; format: cell-based; details: 24 hours of compound treatment, compounds tested at 50 nM and 500 nM (concentration of the table not stated)
# T1 construct: endogenous in cells; host or cells: hPBMCs (Milecell Biotechnologies)
# [2] = molecular target: T2, IKZF1 (Homo sapiens, UniProt Q13422+Q96SW2); experiment: Western-blot assay of substrate protein degradation in hPBMCs, IKZF1; format: cell-based; details: 24 hours of compound treatment, compounds tested at 50 nM and 500 nM (concentration of the table not stated)
# T2 construct: endogenous in cells; host or cells: hPBMCs (Milecell Biotechnologies)
# [3] = molecular target: T3, IKZF2 (Homo sapiens, UniProt Q96SW2+Q9UKS7); experiment: Western-blot assay of substrate protein degradation in hPBMCs, IKZF2; format: cell-based; details: 24 hours of compound treatment, compounds tested at 50 nM and 500 nM (concentration of the table not stated)
# T3 construct: endogenous in cells; host or cells: hPBMCs (Milecell Biotechnologies)
# [4] = molecular target: T4, IKZF3 (Homo sapiens, UniProt Q96SW2+Q9UKT9); experiment: Western-blot assay of substrate protein degradation in hPBMCs, IKZF3; format: cell-based; details: 24 hours of compound treatment, compounds tested at 50 nM and 500 nM (concentration of the table not stated)
# T4 construct: endogenous in cells; host or cells: hPBMCs (Milecell Biotechnologies)
# [5] = molecular target: T5, CK1α (Homo sapiens, UniProt P48729+Q96SW2); experiment: Western-blot assay of substrate protein degradation in hPBMCs, CK1α; format: cell-based; details: 24 hours of compound treatment, compounds tested at 50 nM and 500 nM (concentration of the table not stated)
# T5 construct: endogenous in cells; host or cells: hPBMCs (Milecell Biotechnologies)
# [6] = molecular target: T6, GSPT1 (Homo sapiens, UniProt P15170+Q96SW2); experiment: Western-blot assay of substrate protein degradation in hPBMCs, GSPT1; format: cell-based; details: 24 hours of compound treatment, compounds tested at 50 nM and 500 nM (concentration of the table not stated)
# T6 construct: endogenous in cells; host or cells: hPBMCs (Milecell Biotechnologies)
# [7] = molecular target: T7, human Cereblon WT GST-tagged protein (Homo sapiens, UniProt Q96SW2); experiment: CRBN-binding affinity by HTRF (CEREBLON BINDING kit); details: HTRF inhibitory activity, CEREBLON BINDING kit; read-out: HTRF IC50
# T7 construct: purchased CISBIO 64BDCRBNPEH
# [8] = tested on: Vcap; experiment: Tumor cell proliferation inhibition (CellTiter-Meiluncell Luminescent Cell Viability Assay), Vcap; details: Homo sapiens, 96 h, read-out: inhibitory activity (IC50, nM) against tumor cells proliferation, Vcap
# [9] = tested on: MM.1R; experiment: Tumor cell proliferation inhibition (CellTiter-Meiluncell Luminescent Cell Viability Assay), MM.1R; details: Homo sapiens, 96 h, read-out: inhibitory activity (IC50, nM) against tumor cells proliferation, MM.1R
# Procedure: (§1) The tumor cells used herein were cultured in a cell culture medium listed in table 2 at 37°C in an incubator with 5% CO2. Prior to experimentation, all cell lines used were correctly identified by STR profiling, and tested negative for mycoplasma contamination using a mycoplasma detection kit through routine screenings.
# (§2) On the following day, the test compounds of the present disclosure were subjected to serial dilution. […] Subsequently, 0.5 µL of the test compound dilution was transferred into the 96-well plate containing the cells, with each well containing 100 µL of cell culture medium. […] Into the 96-well plate, the diluted test compounds and corresponding detection reagents were added, resulting in final test compound concentrations of 500 nM and 10 nM, respectively. The experimental procedure is described below using the diluted 2 µM test compound as an example.
# (§3) After the cells were treated with the compounds of the present disclosure for a specified period (the treatment durations were shown in Table 3), the cell viability assay reagent was added to the culture medium according to the kit's instructions to determine cell viability. […] All controls were treated using the same procedure as the compounds of the present disclosure. The growth inhibition curves for the compounds of the present disclosure were plotted using Prism GraphPad software, and the IC50 values were calculated therefrom.
# [10] = tested on: Jurkat; experiment: Tumor cell proliferation inhibition (CellTiter-Meiluncell Luminescent Cell Viability Assay), Jurkat; details: Homo sapiens, 96 h, read-out: inhibitory activity (IC50, nM) against tumor cells proliferation, Jurkat
# Procedure: as §1, §2, §3
# [11] = tested on: CAL-62; experiment: Tumor cell proliferation inhibition (CellTiter-Meiluncell Luminescent Cell Viability Assay), CAL-62; details: Homo sapiens, CAL-62, 96 h, read-out: inhibitory activity (IC50, nM) against tumor cells proliferation, CAL-62
# [12] = tested on: Human acute T lymphocytic leukemia cells (Molt-4); experiment: Tumor cell proliferation inhibition (CellTiter-Meiluncell Luminescent Cell Viability Assay), Molt-4; details: MOLT-4, 96 h, read-out: inhibitory activity (IC50, nM) against tumor cells proliferation, Molt 4
# [13] = tested on: CCRF-CEM; experiment: Tumor cell proliferation inhibition (CellTiter-Meiluncell Luminescent Cell Viability Assay), CCRF-CEM; details: Homo sapiens, 96 h, read-out: inhibitory activity (IC50, nM) against tumor cells proliferation, CCRF-CEM
# [14] = tested on: TMD8; experiment: Tumor cell proliferation inhibition (CellTiter-Meiluncell Luminescent Cell Viability Assay), TMD8; details: Homo sapiens, TMD8, 96 h, read-out: inhibitory activity (IC50, nM) against tumor cells proliferation, TMD8
# [15] = tested on: NCI-H1975; experiment: Tumor cell proliferation inhibition (CellTiter-Meiluncell Luminescent Cell Viability Assay), NCI-H1975; details: Homo sapiens, NCI-H1975, 96 h, read-out: inhibitory activity (IC50, nM) against tumor cells proliferation, H1975
# [16] = tested on: Human breast cancer cells (MDA-MB-231); experiment: Tumor cell proliferation inhibition (CellTiter-Meiluncell Luminescent Cell Viability Assay), MDA-MB-231; details: MDA-MB-231, 96 h, read-out: inhibitory activity (IC50, nM) against tumor cells proliferation, MDA-MB-231
# T4 sequence (Q9UKT9 whole entry): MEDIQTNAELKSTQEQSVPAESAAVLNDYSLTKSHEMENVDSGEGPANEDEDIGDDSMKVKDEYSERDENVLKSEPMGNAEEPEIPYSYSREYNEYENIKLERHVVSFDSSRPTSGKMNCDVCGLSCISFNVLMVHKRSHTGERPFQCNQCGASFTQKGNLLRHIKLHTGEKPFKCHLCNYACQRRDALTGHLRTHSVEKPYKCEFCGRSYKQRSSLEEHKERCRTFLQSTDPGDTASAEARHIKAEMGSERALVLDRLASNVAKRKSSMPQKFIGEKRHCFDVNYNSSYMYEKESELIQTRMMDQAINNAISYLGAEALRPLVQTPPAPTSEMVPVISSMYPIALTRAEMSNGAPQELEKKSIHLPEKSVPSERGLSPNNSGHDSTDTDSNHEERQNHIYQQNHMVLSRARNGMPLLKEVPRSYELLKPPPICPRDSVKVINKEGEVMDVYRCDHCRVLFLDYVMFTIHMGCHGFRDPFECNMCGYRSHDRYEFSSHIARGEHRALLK
# T4 sequence (Q96SW2 whole entry): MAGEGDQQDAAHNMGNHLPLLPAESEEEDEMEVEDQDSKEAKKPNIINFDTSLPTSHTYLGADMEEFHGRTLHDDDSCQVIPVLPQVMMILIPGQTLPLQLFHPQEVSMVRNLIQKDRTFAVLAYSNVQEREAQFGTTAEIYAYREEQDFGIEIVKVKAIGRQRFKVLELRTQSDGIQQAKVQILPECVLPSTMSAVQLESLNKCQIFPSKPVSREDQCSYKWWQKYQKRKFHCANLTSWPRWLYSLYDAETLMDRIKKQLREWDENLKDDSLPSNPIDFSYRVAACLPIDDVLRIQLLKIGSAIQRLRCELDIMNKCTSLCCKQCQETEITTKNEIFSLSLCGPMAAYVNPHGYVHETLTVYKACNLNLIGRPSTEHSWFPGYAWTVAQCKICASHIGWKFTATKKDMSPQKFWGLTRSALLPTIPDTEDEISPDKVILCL
# T4 sequence (Q16531 whole entry partner): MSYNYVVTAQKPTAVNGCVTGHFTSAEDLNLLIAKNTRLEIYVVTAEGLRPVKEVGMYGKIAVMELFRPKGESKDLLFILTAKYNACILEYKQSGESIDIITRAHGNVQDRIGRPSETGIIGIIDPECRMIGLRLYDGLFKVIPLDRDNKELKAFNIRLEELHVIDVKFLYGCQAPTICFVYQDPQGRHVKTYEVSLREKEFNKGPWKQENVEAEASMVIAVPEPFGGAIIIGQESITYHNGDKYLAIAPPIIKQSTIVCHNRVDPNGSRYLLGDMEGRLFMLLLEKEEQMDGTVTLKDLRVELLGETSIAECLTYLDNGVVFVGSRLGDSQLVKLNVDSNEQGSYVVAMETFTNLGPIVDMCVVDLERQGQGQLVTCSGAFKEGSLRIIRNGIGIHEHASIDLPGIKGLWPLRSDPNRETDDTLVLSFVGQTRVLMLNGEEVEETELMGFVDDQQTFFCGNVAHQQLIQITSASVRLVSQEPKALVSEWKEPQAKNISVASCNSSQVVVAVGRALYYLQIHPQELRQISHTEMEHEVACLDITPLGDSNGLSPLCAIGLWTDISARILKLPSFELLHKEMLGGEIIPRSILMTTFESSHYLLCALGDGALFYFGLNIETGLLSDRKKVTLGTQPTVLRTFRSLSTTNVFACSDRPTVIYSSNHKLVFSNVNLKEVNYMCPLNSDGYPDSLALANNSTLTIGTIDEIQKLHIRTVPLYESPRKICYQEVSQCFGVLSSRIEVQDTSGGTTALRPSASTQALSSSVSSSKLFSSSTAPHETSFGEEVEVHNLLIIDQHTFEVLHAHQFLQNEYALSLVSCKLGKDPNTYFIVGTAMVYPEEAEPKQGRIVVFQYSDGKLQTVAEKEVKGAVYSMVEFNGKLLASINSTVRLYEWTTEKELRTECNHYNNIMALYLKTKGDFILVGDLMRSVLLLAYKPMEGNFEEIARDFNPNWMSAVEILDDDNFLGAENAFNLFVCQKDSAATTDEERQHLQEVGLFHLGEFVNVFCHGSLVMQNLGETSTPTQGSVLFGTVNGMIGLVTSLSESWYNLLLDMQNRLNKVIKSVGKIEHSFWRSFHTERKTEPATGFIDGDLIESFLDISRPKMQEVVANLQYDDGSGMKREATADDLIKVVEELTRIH
# T3 sequence (Q9UKS7 whole entry): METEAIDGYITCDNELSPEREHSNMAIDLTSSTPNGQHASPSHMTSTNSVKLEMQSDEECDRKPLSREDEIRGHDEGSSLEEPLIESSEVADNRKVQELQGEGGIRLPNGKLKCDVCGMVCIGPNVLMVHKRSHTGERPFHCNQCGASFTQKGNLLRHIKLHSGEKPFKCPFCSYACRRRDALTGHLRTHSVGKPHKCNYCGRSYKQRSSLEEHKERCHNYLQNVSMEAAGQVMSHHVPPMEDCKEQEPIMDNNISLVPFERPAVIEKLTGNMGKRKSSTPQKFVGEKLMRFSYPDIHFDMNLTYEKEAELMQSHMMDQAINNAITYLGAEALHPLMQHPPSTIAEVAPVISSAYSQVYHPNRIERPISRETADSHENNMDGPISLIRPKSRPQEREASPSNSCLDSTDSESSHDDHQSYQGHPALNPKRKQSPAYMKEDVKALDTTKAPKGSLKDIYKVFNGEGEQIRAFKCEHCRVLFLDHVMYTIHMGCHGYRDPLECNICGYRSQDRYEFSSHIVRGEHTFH
# T3 sequence (Q96SW2 whole entry): as the sequence (Q96SW2 whole entry) above
# T3 sequence (Q16531 whole entry partner): as the sequence (Q16531 whole entry partner) above
# T7 sequence (Q96SW2 whole entry): as the sequence (Q96SW2 whole entry) above
# T5 sequence (P48729 whole entry): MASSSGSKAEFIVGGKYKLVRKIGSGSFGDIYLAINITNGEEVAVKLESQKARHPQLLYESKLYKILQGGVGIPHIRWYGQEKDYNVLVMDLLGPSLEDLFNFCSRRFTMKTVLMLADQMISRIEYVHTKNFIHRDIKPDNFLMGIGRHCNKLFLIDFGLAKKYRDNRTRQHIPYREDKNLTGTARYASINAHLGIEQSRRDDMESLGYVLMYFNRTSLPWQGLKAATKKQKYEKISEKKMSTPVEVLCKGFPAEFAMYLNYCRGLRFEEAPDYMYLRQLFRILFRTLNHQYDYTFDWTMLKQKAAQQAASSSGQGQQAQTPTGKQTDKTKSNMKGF
# T5 sequence (Q96SW2 whole entry): as the sequence (Q96SW2 whole entry) above
# T5 sequence (Q16531 whole entry partner): as the sequence (Q16531 whole entry partner) above
# T1 sequence (P30291 whole entry): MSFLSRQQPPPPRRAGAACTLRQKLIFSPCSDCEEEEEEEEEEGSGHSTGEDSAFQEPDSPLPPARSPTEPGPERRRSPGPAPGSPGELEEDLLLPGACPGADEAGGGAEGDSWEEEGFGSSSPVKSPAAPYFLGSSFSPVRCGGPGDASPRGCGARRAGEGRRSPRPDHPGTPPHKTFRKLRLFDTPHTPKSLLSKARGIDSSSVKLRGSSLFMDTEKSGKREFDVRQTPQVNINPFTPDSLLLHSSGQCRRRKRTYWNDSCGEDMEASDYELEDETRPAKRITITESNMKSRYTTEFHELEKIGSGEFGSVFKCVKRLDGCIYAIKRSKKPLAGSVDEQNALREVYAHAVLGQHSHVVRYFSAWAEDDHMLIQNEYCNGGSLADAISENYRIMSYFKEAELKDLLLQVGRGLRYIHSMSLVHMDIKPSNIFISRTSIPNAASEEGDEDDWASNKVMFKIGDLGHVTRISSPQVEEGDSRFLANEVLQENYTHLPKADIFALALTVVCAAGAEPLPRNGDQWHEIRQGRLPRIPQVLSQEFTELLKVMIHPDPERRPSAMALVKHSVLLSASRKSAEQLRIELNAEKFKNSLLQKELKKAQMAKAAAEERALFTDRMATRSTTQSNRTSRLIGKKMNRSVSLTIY
# T1 sequence (Q96SW2 whole entry): as the sequence (Q96SW2 whole entry) above
# T1 sequence (Q16531 whole entry partner): as the sequence (Q16531 whole entry partner) above
# T6 sequence (P15170 whole entry): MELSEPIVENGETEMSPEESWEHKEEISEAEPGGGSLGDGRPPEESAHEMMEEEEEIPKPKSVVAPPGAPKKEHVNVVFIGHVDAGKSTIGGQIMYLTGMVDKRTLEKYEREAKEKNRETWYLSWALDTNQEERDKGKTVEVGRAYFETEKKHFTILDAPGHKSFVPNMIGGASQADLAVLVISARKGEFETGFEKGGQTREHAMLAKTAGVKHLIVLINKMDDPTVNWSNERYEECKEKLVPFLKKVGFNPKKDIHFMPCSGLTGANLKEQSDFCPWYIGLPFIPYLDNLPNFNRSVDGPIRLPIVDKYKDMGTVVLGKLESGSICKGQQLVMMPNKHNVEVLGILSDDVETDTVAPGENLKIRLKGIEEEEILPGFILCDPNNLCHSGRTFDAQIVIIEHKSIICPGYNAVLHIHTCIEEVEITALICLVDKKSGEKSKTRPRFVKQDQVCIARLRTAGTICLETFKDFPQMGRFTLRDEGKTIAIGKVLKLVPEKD
# T6 sequence (Q96SW2 whole entry): as the sequence (Q96SW2 whole entry) above
# T6 sequence (Q16531 whole entry partner): as the sequence (Q16531 whole entry partner) above
Compound,Weel substrate protein remaining % [1],IKZF 1 substrate protein remaining % [2],IKZF2 substrate protein remaining % [3],IKZF3 substrate protein remaining % [4],CK1a substrate protein remaining % [5],GSPT1 substrate protein remaining % [6],IC50 [7] [nM],IC50 [8] [nM],IC50 [9] [nM],IC50 [10] [nM],IC50 [11] [nM],IC50 [12] [nM],IC50 [13] [nM],IC50 [14] [nM],IC50 [15] [nM],IC50 [16] [nM]
"O=C1CCC(N2Cc3cc(CN4CCC(c5ccc(F)cc5)CC4)ccc3C2=O)C(=O)N1 (centres unmarked) [GT-04471, 3-(5-((4-(4-fluorophenyl)piperidin-1-yl)methyl)-1-oxoisoindolin-2-yl)piperidine-2,6-dione]",A (0% ≤ substrate protein remaining % ≤ 80%),A (0% ≤ substrate protein remaining % ≤ 80%),A (0% ≤ substrate protein remaining % ≤ 80%),A (0% ≤ substrate protein remaining % ≤ 80%),B (80%< substrate protein remaining %≤ 100%),A (0% ≤ substrate protein remaining % ≤ 80%),500 to 1000,100 to 500,50 to 100,10 to 50,100 to 500,10 to 50,10 to 50,–,–,–
"COc1ccccc1N1CCN(Cc2ccc3c(c2)CN(C2CCC(=O)NC2=O)C3=O)CC1 (centres unmarked) [GT-04490, 3-(5-((4-(2-methoxyphenyl)piperazin-1-yl)methyl)-1-oxoisoindolin-2-yl)piperidine-2,6-dione]",B (80%< substrate protein remaining %≤ 100%),B (80%< substrate protein remaining %≤ 100%),A (0% ≤ substrate protein remaining % ≤ 80%),B (80%< substrate protein remaining %≤ 100%),A (0% ≤ substrate protein remaining % ≤ 80%),A (0% ≤ substrate protein remaining % ≤ 80%),500 to 1000,500 to 1000,100 to 500,50 to 100,500 to 1000,100 to 500,50 to 100,–,–,–
"O=C1CCC(N2Cc3cc(CN4CC=C(c5nccc(Cl)c5Cl)CC4)ccc3C2=O)C(=O)N1 (centres unmarked) [GT-04570, 3-(5-((3,4-dichloro-3',6'-dihydro-[2,4'-bipyridin]-1'(2'H)-yl)methyl)-1-oxoisoindolin-2-yl)piperidine-2,6-dione]",A (0% ≤ substrate protein remaining % ≤ 80%),A (0% ≤ substrate protein remaining % ≤ 80%),A (0% ≤ substrate protein remaining % ≤ 80%),A (0% ≤ substrate protein remaining % ≤ 80%),A (0% ≤ substrate protein remaining % ≤ 80%),A (0% ≤ substrate protein remaining % ≤ 80%),500 to 1000,–,–,–,–,1 to 5,–,10 to 50,10 to 50,1 to 5
"O=C1CCC(N2Cc3cc(CN4CCC(c5cccs5)CC4)ccc3C2=O)C(=O)N1 (centres unmarked) [GT-04571, 3-(1-oxo-5-((4-(thiophen-2-yl)piperidin-1-yl)methyl)isoindolin-2-yl)piperidine-2,6-dione]",A (0% ≤ substrate protein remaining % ≤ 80%),A (0% ≤ substrate protein remaining % ≤ 80%),A (0% ≤ substrate protein remaining % ≤ 80%),A (0% ≤ substrate protein remaining % ≤ 80%),A (0% ≤ substrate protein remaining % ≤ 80%),A (0% ≤ substrate protein remaining % ≤ 80%),1000 to 1500,–,–,–,–,5 to 10,–,100 to 500,50 to 100,10 to 50
"Cc1ccc(C2=CCN(Cc3ccc4c(c3)CN(C3CCC(=O)NC3=O)C4=O)CC2)s1 (centres unmarked) [GT-04572, 3-(5-((4-(5-methylthiophen-2-yl)-3,6-dihydropyridin-1(2H)-yl)methyl)-1-oxoisoindolin-2-yl)piperidine-2,6-dione]",A (0% ≤ substrate protein remaining % ≤ 80%),A (0% ≤ substrate protein remaining % ≤ 80%),A (0% ≤ substrate protein remaining % ≤ 80%),A (0% ≤ substrate protein remaining % ≤ 80%),A (0% ≤ substrate protein remaining % ≤ 80%),A (0% ≤ substrate protein remaining % ≤ 80%),500 to 1000,–,–,–,–,1 to 5,–,10 to 50,10 to 50,10 to 50
"Cc1ccc(C2CCN(Cc3ccc4c(c3)CN(C3CCC(=O)NC3=O)C4=O)CC2)s1 (centres unmarked) [GT-04573, 3-(5-((4-(5-methylthiophen-2-yl)piperidin-1-yl)methyl)-1-oxoisoindolin-2-yl)piperidine-2,6-dione]",A (0% ≤ substrate protein remaining % ≤ 80%),A (0% ≤ substrate protein remaining % ≤ 80%),A (0% ≤ substrate protein remaining % ≤ 80%),A (0% ≤ substrate protein remaining % ≤ 80%),A (0% ≤ substrate protein remaining % ≤ 80%),A (0% ≤ substrate protein remaining % ≤ 80%),1000 to 1500,–,–,–,–,5 to 10,–,50 to 100,50 to 100,10 to 50
"O=C1CCC(N2Cc3cc(CN4CCN(c5c[nH]c6ncccc56)CC4)ccc3C2=O)C(=O)N1 (centres unmarked) [GT-04601, 3-(5-((4-(1H-pyrrolo[2,3-b]pyridin-3-yl)piperazin-1-yl)methyl)-1-oxoisoindolin-2-yl)piperidine-2,6-dione]",A (0% ≤ substrate protein remaining % ≤ 80%),A (0% ≤ substrate protein remaining % ≤ 80%),B (80%< substrate protein remaining %≤ 100%),A (0% ≤ substrate protein remaining % ≤ 80%),A (0% ≤ substrate protein remaining % ≤ 80%),A (0% ≤ substrate protein remaining % ≤ 80%),< 500,–,–,–,–,100 to 500,–,500 to 1000,–,500 to 1000
"Cc1sc2ncnc(C3=CCN(Cc4ccc5c(c4)CN(C4CCC(=O)NC4=O)C5=O)CC3)c2c1C (centres unmarked) [GT-04727, 3-(5-((4-(5,6-dimethylthieno[2,3-d]pyrimidin-4-yl)-3,6-dihydropyridin-1(2H)-yl)methyl)-1-oxoisoindolin-2-yl)piperidine-2,6-dione]",A (0% ≤ substrate protein remaining % ≤ 80%),A (0% ≤ substrate protein remaining % ≤ 80%),B (80%< substrate protein remaining %≤ 100%),A (0% ≤ substrate protein remaining % ≤ 80%),A (0% ≤ substrate protein remaining % ≤ 80%),A (0% ≤ substrate protein remaining % ≤ 80%),< 500,–,–,–,–,10 to 50,–,500 to 1000,–,100 to 500
"O=C1CCC(N2Cc3cc(CN4CCC(c5noc6cc(F)ccc56)CC4)c(F)cc3C2=O)C(=O)N1 (centres unmarked) [GT-04766, 3-(6-fluoro-5-((4-(6-fluorobenzo[d]isoxazol-3-yl)piperidin-1-yl)methyl)-1-oxoisoindolin-2-yl)piperidine-2,6-dione]",–,–,–,–,–,–,1500 to 1900,–,–,–,–,1 to 5,–,10 to 50,10 to 50,10 to 50
